Measurements as given in article PMC6627609, “Targeting Quorum Sensing: High-Throughput Screening to Identify Novel LsrK Inhibitors” (International Journal of Molecular Sciences, 2019).
Structures can show the parent of a compound that is named as a salt.

Biological target: LsrK (Salmonella typhimurium, UniProt Q8ZKQ6)
Experiment: biochemical
Assay type: biochemical, S. typhimurium
Details: for Inhibition (%): 50 µM

Chain of LsrK (Q8ZKQ6 whole entry): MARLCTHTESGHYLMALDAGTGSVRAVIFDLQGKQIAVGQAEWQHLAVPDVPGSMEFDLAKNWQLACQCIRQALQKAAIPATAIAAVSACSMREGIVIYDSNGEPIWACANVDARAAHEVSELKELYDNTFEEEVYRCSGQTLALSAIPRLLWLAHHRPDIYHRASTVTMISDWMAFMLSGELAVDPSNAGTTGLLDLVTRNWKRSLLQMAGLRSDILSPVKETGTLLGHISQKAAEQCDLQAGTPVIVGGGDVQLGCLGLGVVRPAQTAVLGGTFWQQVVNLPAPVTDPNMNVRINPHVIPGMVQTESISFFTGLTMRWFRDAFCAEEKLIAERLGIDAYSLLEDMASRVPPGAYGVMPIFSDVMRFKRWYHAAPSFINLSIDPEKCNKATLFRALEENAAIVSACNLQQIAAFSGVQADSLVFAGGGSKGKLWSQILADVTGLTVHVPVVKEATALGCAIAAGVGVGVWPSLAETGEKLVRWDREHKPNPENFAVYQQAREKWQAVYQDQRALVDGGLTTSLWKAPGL

Row | SMILES | inhibition at 50 µM [%] | further results
1 | CC(=O)OCC(=O)[C@H]1CC[C@H]2[C@@H]3CCC4=CC(=O)CC[C@]4(C)[C@H]3CC[C@]12C [DESOXYCORTICOSTERONE ACETATE] | 1 | 
2 | c1ccc2c(c1)CN1CCCC1=N2 [DESOXYPEGANINE HYDROCHLORIDE] | 0 | 
3 | CC(=O)OCC(=O)[C@@]1(O)[C@H](C)C[C@H]2[C@@H]3CCC4=CC(=O)C=C[C@]4(C)[C@@]3(F)[C@@H](O)C[C@@]21C [DEXAMETHASONE ACETATE] | 0 | 
4 | CC(=O)Oc1cccc2c1C(=O)c1c(OC(C)=O)cc(C(=O)O)cc1C2=O [DIACERIN] |  | Inhibition (%): 0
5 | NC[C@@H]1CC[C@@H](N)[C@@H](O[C@H]2[C@H](O)[C@@H](O[C@H]3O[C@H](CO)[C@@H](O)[C@H](N)[C@H]3O)[C@H](N)C[C@@H]2N)O1 [DIBEKACIN] | 0 | 
6 | c1ccc2c(c1)sc1ccccc12 [DIBENZOTHIOPHENE] | 0 | 
7 | CCCCOC(=O)c1ccccc1C(=O)OCCCC [DIBUTYL PHTHALATE] | 0 | 
8 | Oc1ccc(Cl)cc1Cc1cc(Cl)ccc1O [DICHLOROPHENE] | 1 | 
9 | Cc1onc(-c2c(Cl)cccc2Cl)c1C(=O)N[C@@H]1C(=O)N2[C@@H]1SC(C)(C)[C@@H]2C(=O)O [DICLOXACILLIN SODIUM] | 0 | 
10 | O=c1oc2ccccc2c(O)c1Cc1c(O)c2ccccc2oc1=O [DICUMAROL] | 4 | 
11 | C/C=C(/C(=C/C)c1ccc(O)cc1)c1ccc(O)cc1 [DIENESTROL] | 2 | 
12 | CCN(CC)C(=O)N1CCN(C)CC1 [DIETHYLCARBAMAZINE CITRATE] | 1 | 
13 | O=C(O)c1cc(-c2ccc(F)cc2F)ccc1O [DIFLUNISAL] | 5 | 
14 | C[C@]12CC[C@H](O)C[C@H]1CC[C@@H]1[C@@H]2C[C@@H](O)[C@]2(C)[C@@H](C3=CC(=O)OC3)CC[C@]12O [DIGOXIGENIN] | 2 | 
15 | Cc1c(O)c(O)cc2c1CC=C1[C@@]2(C)CC[C@@]2(C)[C@@H]3C[C@](C)(C(=O)O)CC[C@]3(C)CC[C@]12C [DIHYDROCELASTROL] | 105 | IC50: 21 µM
16 | Nc1nc2c(c(=O)[nH]1)N=C(CNc1ccc(C(=O)N[C@@H](CCC(=O)O)C(=O)O)cc1)CN2 [DIHYDROFOLIC ACID] | 49 | 
17 | CCCCCC1C(=O)CCC1CC(=O)O (stereo not drawn) [DIHYDROJASMONIC ACID] | 1 | 
18 | Cc1cccc2c3c(ccc12)C1=C(C(=O)C3=O)[C@@H](C)CO1 [DIHYDROTANSHINONE I] | 115 | 
19 | CN(C(=O)C(Cl)Cl)c1ccc(OC(=O)c2ccco2)cc1 [DILOXANIDE FUROATE] | 4 | 
20 | OCC(S)CS (stereo not drawn) [DIMERCAPROL] | 125 | 
21 | OCCN(CCO)c1nc(N2CCCCC2)c2nc(N(CCO)CCO)nc(N3CCCCC3)c2n1 [DIPYRIDAMOLE] | 2 | 
22 | Cc1c(N(C)CS(=O)(=O)[O-])c(=O)n(-c2ccccc2)n1C.[Na+] [DIPYRONE] |  | Inhibition (%): 2
23 | CC(CCc1ccc(O)cc1)NCCc1ccc(O)c(O)c1 (stereo not drawn) [DOBUTAMINE HYDROCHLORIDE] | 3 | 

Row | SMILES | inhibition at 50 µM [%] | further results
24 | COc1cc2c(cc1OC)C(=O)C(CC1CCN(Cc3ccccc3)CC1)C2 (stereo not drawn) [DONEPEZIL HYDROCHLORIDE] | 2 | 
25 | NCCc1ccc(O)c(O)c1 [DOPAMINE HYDROCHLORIDE] | 2 | 
26 | COc1cc2nc(N3CCN(C(=O)C4COc5ccccc5O4)CC3)nc(N)c2cc1OC (stereo not drawn) [DOXAZOSIN MESYLATE] | 0 | 
27 | C[C@H]1O[C@@H](n2cc(F)c(=O)[nH]c2=O)[C@H](O)[C@@H]1O [DOXIFLURIDINE] | 1 | 
28 | C[C@H]1c2cccc(O)c2C(=O)C2=C(O)[C@]3(O)C(=O)C(C(N)=O)=C(O)[C@@H](N(C)C)[C@@H]3[C@@H](O)[C@@H]21 [DOXYCYCLINE HYDROCHLORIDE] | 106 | 
29 | CCN(CC)CCOC(=O)C(c1ccccc1)C1CCCCC1 (stereo not drawn) [DROFENINE HYDROCHLORIDE] | 0 | 
30 | CNCC[C@H](Oc1cccc2ccccc12)c1cccs1 [DULOXETINE HYDROCHLORIDE] | 1 | 
31 | CCCCOc1ccc(C(=O)CCN2CCCCC2)cc1 [DYCLONINE HYDROCHLORIDE] | 131 | 
32 | Cn1c(=O)c2c(ncn2CC(O)CO)n(C)c1=O (stereo not drawn) [DYPHYLLINE] | 1 | 
33 | COc1cc(C)c(C(=O)Oc2cc(C)c(C(=O)O)c(O)c2C)c(OC)c1C [D[…]] | 35 | 
34 | O=c1c2ccccc2[se]n1-c1ccccc1 [EBSELEN] | 6 | 
35 | CCc1cn([C@H]2C[C@H](O)[C@@H](CO)O2)c(=O)[nH]c1=O [EDOXUDINE] | 0 | 
36 | CC[N+](C)(C)c1cccc(O)c1 [EDROPHONIUM CHLORIDE] | 0 | 
37 | O=c1oc2c(O)c(O)cc3c(=O)oc4c(O)c(O)cc1c4c23 [ELLAGIC ACID] | 7 | 
38 | CCn1cc(C(=O)O)c(=O)c2cc(F)c(N3CCNCC3)nc21 [ENOXACIN] | 0 | 
39 | CC1(C)[C@@H](O)CC[C@]2(C)[C@H]3C(=O)C=C4[C@@H]5C[C@@](C)(C(=O)O)CC[C@]5(C)CC[C@@]4(C)[C@]3(C)CC[C@@H]12 [ENOXOLONE] | 2 | 
40 | CCN1CCN(c2cc3c(cc2F)c(=O)c(C(=O)O)cn3C2CC2)CC1 [ENROFLOXACIN] | 1 | 
41 | CCC(C)C(=O)O[C@@H]1C[C@@]2(C)[C@H](c3ccoc3)OC(=O)CC23OC2(C)OC34[C@H](OC(=O)C(C)C)[C@@]3(O)[C@@H](OC(=O)C5(C)OC5C)[C@@]5(C)C[C@]3(O)[C@@](C)([C@H]5CC(=O)OC)C14O2 (stereo partly drawn) [ENTANDROPHRAGMIN] |  | Inhibition (%): 1
42 | O=C(O[C@@H]1Cc2c(O)cc(O)cc2O[C@@H]1c1ccc(O)c(O)c1)c1cc(O)c(O)c(O)c1 [EPICATECHIN MONOGALLATE] |  | Inhibition (%): 86
43 | Oc1cc(O)c2c(c1)O[C@H](c1ccc(O)c(O)c1)[C@H](O)C2 [EPICATECHIN] | 2 | 
44 | O=C(Oc1cc(O)cc2c1C[C@@H](OC(=O)c1cc(O)c(O)c(O)c1)[C@@H](c1cc(O)c(O)c(O)c1)O2)c1cc(O)c(O)c(O)c1 [EPIGALLOCATECHIN 3.5-DIGALLATE] |  | Inhibition (%): 88
45 | O=C(O[C@@H]1Cc2c(O)cc(O)cc2O[C@@H]1c1cc(O)c(O)c(O)c1)c1cc(O)c(O)c(O)c1 [EPIGALLOCATECHIN-3-MONOGALLATE] |  | Inhibition (%): 87
46 | Oc1cc(O)c2c(c1)O[C@H](c1cc(O)c(O)c(O)c1)[C@H](O)C2 [EPIGALLOCATECHIN] | 89 | 

Row | SMILES | inhibition at 50 µM [%] | further results
47 | C[C@]12CC[C@H]3[C@@H](CCC4=CC(=O)CC[C@@]43C)[C@@H]1CC[C@H]2O [EPITESTOSTERONE] | 0 | 
48 | CC(=O)O[C@@H]1CC2C(C)(C)C(=O)C3OC3[C@]2(C)C2CC[C@@]3(C)[C@H](c4ccoc4)OC(=O)C4OC43[C@@]21C (stereo partly drawn) [EPOXYGEDUNIN] |  | Inhibition (%): 0
49 | C[C@]12CC[C@H]3C(=CCc4cc(O)ccc43)[C@@H]1CCC2=O [EQUILIN] | 1 | 
50 | CC(=O)O[C@H]1CC[C@@]2(C)C(=CC=C3[C@@H]4CC[C@H]([C@H](C)/C=C/[C@H](C)C(C)C)[C@@]4(C)CC[C@@H]32)C1 [ERGOSTEROL ACETATE] |  | Inhibition (%): 2
51 | CC(C)[C@@H](C)/C=C/[C@@H](C)[C@H]1CC[C@H]2C3=CC=C4C[C@@H](O)CC[C@]4(C)[C@H]3CC[C@]12C [ERGOSTEROL] | 0 | 
52 | CN1C[C@H](C(=O)N[C@]2(C)O[C@@]3(O)[C@@H]4CCCN4C(=O)[C@H](Cc4ccccc4)N3C2=O)C=C2c3cccc4[nH]cc(c34)C[C@H]21 [ERGOTAMINE TARTRATE] | 2 | 
53 | CCC(=O)O[C@H]1[C@H](O[C@@H]2[C@@H](C)[C@H](O[C@H]3C[C@@](C)(OC)[C@@H](O)[C@H](C)O3)[C@@H](C)C(=O)O[C@H](CC)[C@@](C)(O)[C@H](O)[C@@H](C)C(=O)[C@H](C)C[C@@]2(C)O)O[C@H](C)C[C@@H]1N(C)C [ERYTHROMYCIN ESTOLATE] | 10 | 
54 | CCOC(=O)CCC(=O)O[C@H]1[C@H](O[C@@H]2[C@@H](C)[C@H](O[C@H]3C[C@@](C)(OC)[C@@H](O)[C@H](C)O3)[C@@H](C)C(=O)O[C@H](CC)[C@@](C)(O)[C@H](O)[C@@H](C)C(=O)[C@H](C)C[C@@]2(C)O)O[C@H](C)C[C@@H]1N(C)C [ERYTHROMYCIN ETHYLSUCCINATE] | 1 | 
55 | CC[C@H]1OC(=O)[C@H](C)[C@@H](O[C@H]2C[C@@](C)(OC)[C@@H](O)[C@H](C)O2)[C@H](C)[C@@H](O[C@@H]2O[C@H](C)C[C@H](N(C)C)[C@H]2O)[C@](C)(O)C[C@@H](C)C(=O)[C@H](C)[C@@H](O)[C@]1(C)O [ERYTHROMYCIN] | 0 | 
56 | O=C([O-])c1ccccc1-c1c2cc(I)c(=O)c(I)c-2oc2c(I)c([O-])c(I)cc12.[Na+].[Na+] [ERYTHROSINE SODIUM] |  | Inhibition (%): 69
57 | CN(C)CCC[C@@]1(c2ccc(F)cc2)OCc2cc(C#N)ccc21 [ESCITALOPRAM OXALATE] | 1 | 
58 | C[C@]12CC[C@@H]3c4ccc(O)cc4CC[C@H]3[C@@H]1CC[C@@H]2OC(=O)CCC1CCCC1 [ESTRADIOL CYPIONATE] | 0 | 
59 | COc1ccc2c(c1)CC[C@@H]1[C@@H]2CC[C@]2(C)[C@@H](O)CC[C@@H]12 [ESTRADIOL METHYL ETHER] | 3 | 
60 | CCCCC(=O)O[C@H]1CC[C@H]2[C@@H]3CCc4cc(O)ccc4[C@H]3CC[C@]12C [ESTRADIOL VALERATE] | 3 | 
61 | C[C@]12CCC3c4ccc(OS(=O)(=O)[O-])cc4CCC3C1CC[C@H]2O.[Na+] (stereo partly drawn) [ESTRADIOL-3-SULFATE. SODIUM SALT] |  | Inhibition (%): 0
62 | CCOc1ccc2nc3cc(N)ccc3c(N)c2c1 [ETHACRIDINE LACTATE] | 1 | 
63 | C=C(CC)C(=O)c1ccc(OCC(=O)O)c(Cl)c1Cl [ETHACRYNIC ACID] | 85 | 
64 | C#C[C@]1(O)CC[C@H]2[C@@H]3CCc4cc(O)ccc4[C@H]3CC[C@@]21C [ETHINYL ESTRADIOL] | 1 | 
65 | CCC1(C)CC(=O)NC1=O (stereo not drawn) [ETHOSUXIMIDE] | 17 | 
66 | CCC(N)C(O)c1ccc(O)c(O)c1 (stereo not drawn) [ETHYLNOREPINEPHRINE HYDROCHLORIDE] | 4 | 
67 | CCc1cc(Cl)c(OC)c(C(=O)NC[C@@H]2CCCN2CC)c1O.Cl [ETICLOPRIDE HYDROCHLORIDE] |  | Inhibition (%): 2
68 | CCOC(=O)c1cncn1[C@H](C)c1ccccc1 [ETOMIDATE] | 2 | 
